Holding throughout (assay type): functional, cell-based
The test system of one assay is HT-29. Briefly: Cytotoxicity against human HT-29 cells assessed as reduction in cell viability after 72 hrs by MTT assay. Particulars: HT-29, 72 h.
For a further assay, the system named is BGC-823. The experiment in a line: Cytotoxicity against human BGC823 cells assessed as reduction in cell viability after 72 hrs by MTT assay. Particulars: BGC-823, 72 h. (In general: Formazan colour is commonly taken as a measure of viable cells.)
The subject of another assay is A2780. Briefly: Cytotoxicity against human A2780 cells assessed as reduction in cell viability after 72 hrs by MTT assay. The following applies: A2780, 72 h.
The subject of another assay is HCT-116. Briefly: Cytotoxicity against human HCT116 cells assessed as reduction in cell viability after 72 hrs by MTT assay. Particulars: HCT-116, 72 h.
In the next assay the test system is HepG2. The experiment in a line: Cytotoxicity against human HepG2 cells assessed as reduction in cell viability after 72 hrs by MTT assay. Particulars: HepG2, 72 h.
Another assay concerns MCF7. The experiment in a line: Cytotoxicity against human MCF7 cells assessed as reduction in cell viability after 72 hrs by MTT assay. The following applies: MCF7, 72 h.

We go through 20 molecules from ChEMBL document CHEMBL4052628, “Synthesis and cytotoxicity of a novel series of saframycin-ecteinascidin analogs containing tetrahydro-β-carboline moieties” (Eur J Med Chem, 2017).

pIC50: −log10 of the molar value.

A word on the pIC50: it is the IC50 on a negative log10 scale, so that one unit is a factor of ten. As to `CN1[C@@H]2c3[nH]c4ccccc4c3C[C@H]1[C@H](C#N)N1[C@@H](CNC(=O)c3cc4ccccc4s3)c3[nH]c4ccccc4c3C[C@@H]21`, the negative-log IC50 (pIC50) is 6.19 with HT-29; 6.62 in the assay with BGC-823; 7.70 in the assay on A2780; 6.30 in the assay with HCT-116; 6.52 in the assay with HepG2; 5.50 with MCF7.

For the molecule `CN1[C@@H]2c3[nH]c4ccccc4c3C[C@H]1[C@H](C#N)N1[C@@H](CNC(=O)c3ccccc3)c3[nH]c4ccccc4c3C[C@@H]21`, the pIC50 in the assay with HT-29 is 6.85; with BGC-823, 6.13; with A2780, 6.70; in the assay on HCT-116, 6.37; in the assay on HepG2, 6.60; with MCF7 it was 5.01.

Take `COc1ccc(/C=C/C(=O)NC[C@H]2c3[nH]c4ccccc4c3C[C@H]3[C@H]4c5[nH]c6ccccc6c5C[C@@H]([C@H](C#N)N23)N4C)cc1`: the negative logarithm of the IC50 (pIC50) is 5.51 with HT-29; 5.26 with BGC-823; 6.07 in the assay with A2780; 5.30 in the assay on HCT-116; 5.67 in the assay with HepG2; 5.37 with MCF7.

`CN1[C@@H]2c3[nH]c4ccccc4c3C[C@H]1[C@H](C#N)N1[C@@H](CNC(=O)c3cc4ccccc4[nH]3)c3[nH]c4ccccc4c3C[C@@H]21`: the pIC50 with HT-29 is 5.91; with BGC-823 it was 5.77; with A2780, 5.15; in the assay with HCT-116, 6.06; in the assay with HepG2, 6.36; with MCF7 it was 5.01.

Take `CN1[C@@H]2c3[nH]c4ccccc4c3C[C@H]1[C@H](C#N)N1[C@@H](CNC(=O)c3ccc(F)cc3)c3[nH]c4ccccc4c3C[C@@H]21`: the pIC50 was 5.86 in the assay on HT-29; 6.51 in the assay on BGC-823; 6.60 in the assay with A2780; 6.85 with HCT-116; 6.68 with HepG2; 6.01 in the assay on MCF7.

On to `CN1[C@@H]2c3[nH]c4ccccc4c3C[C@H]1[C@H](C#N)N1[C@@H](CNC(=O)c3cccs3)c3[nH]c4ccccc4c3C[C@@H]21`, for which the pIC50 was 5.88 in the assay with HT-29; 6.55 in the assay on BGC-823; 6.64 in the assay on A2780; 6.26 in the assay on HCT-116; 6.74 in the assay on HepG2; 6.33 in the assay with MCF7.

In the case of `CN1[C@@H]2c3[nH]c4ccccc4c3C[C@H]1[C@H](C#N)N1[C@@H](CNC(=O)/C=C/c3ccccc3)c3[nH]c4ccccc4c3C[C@@H]21`, the negative logarithm of the IC50 (pIC50) in the assay on HT-29 was 5.85; in the assay with BGC-823, 5.37; in the assay on A2780, 6.11; with HCT-116, 5.71; with HepG2, 6.33; in the assay on MCF7, 5.14.

Turning to `CN1[C@@H]2c3[nH]c4ccccc4c3C[C@H]1[C@H](C#N)N1[C@@H](CN3C(=O)c4ccccc4C3=O)c3[nH]c4ccccc4c3C[C@@H]21`, the negative logarithm of the IC50 (pIC50) in the assay on HT-29 was 7.10; with BGC-823, 6.39; in the assay on A2780, 7.10; with HCT-116 it was 7.40; with HepG2 it was 7.70; in the assay on MCF7 it was 6.21.

For `CN1[C@@H]2c3[nH]c4ccccc4c3C[C@H]1[C@H](C#N)N1[C@@H](CNC(=O)/C=C/c3cccc(C(F)(F)F)c3)c3[nH]c4ccccc4c3C[C@@H]21`, the pIC50 was 5.30 with HT-29; 6.04 with BGC-823; less than 5.00 in the assay on A2780; 6.21 in the assay with HCT-116; 6.27 in the assay with HepG2; 6.96 in the assay on MCF7.

On to `CN1[C@@H]2c3[nH]c4ccccc4c3C[C@H]1[C@H](C#N)N1[C@@H](CNC(=O)c3cccc4c3CCCC4)c3[nH]c4ccccc4c3C[C@@H]21`, for which the negative logarithm of the IC50 (pIC50) in the assay with HT-29 was 5.48; in the assay with BGC-823, 5.45; in the assay on A2780, 6.09; in the assay on HCT-116, 5.38; with HepG2, 6.27; in the assay with MCF7 it was 5.35.

As to `CN1[C@@H]2c3[nH]c4ccccc4c3C[C@H]1[C@H](C#N)N1[C@@H](CNC(=O)c3ccc4ccccc4n3)c3[nH]c4ccccc4c3C[C@@H]21`, the negative-log IC50 (pIC50) with HT-29 is 6.82; with BGC-823 it was 7.10; with A2780, 7.22; with HCT-116, 6.62; in the assay on HepG2 it was 6.96; with MCF7 it was 6.82.

As for `CN1[C@@H]2c3[nH]c4ccccc4c3C[C@H]1[C@H](C#N)N1[C@@H](CNC(=O)c3ccc(Cl)cc3)c3[nH]c4ccccc4c3C[C@@H]21`, the pIC50 was 6.89 with HT-29; 6.96 in the assay with BGC-823; 6.64 in the assay on A2780; 6.20 in the assay with HCT-116; 6.46 in the assay with HepG2; 6.21 in the assay with MCF7.

For the molecule `CN1[C@@H]2c3[nH]c4ccccc4c3C[C@H]1[C@H](C#N)N1[C@@H](CNC(=O)c3cc4ccccc4o3)c3[nH]c4ccccc4c3C[C@@H]21`, the pIC50 is 6.07 in the assay with HT-29; 6.68 with BGC-823; 6.64 with A2780; 6.48 with HCT-116; 6.55 in the assay with HepG2; 6.49 in the assay on MCF7.

Turning to `COc1ccc(C(=O)NC[C@H]2c3[nH]c4ccccc4c3C[C@H]3[C@H]4c5[nH]c6ccccc6c5C[C@@H]([C@H](C#N)N23)N4C)cc1`, the pIC50 was 6.08 in the assay with HT-29; 6.49 with BGC-823; 6.49 with A2780; 6.37 in the assay on HCT-116; 6.51 in the assay on HepG2; 6.22 with MCF7.

Take `CC(=O)NC[C@H]1c2[nH]c3ccccc3c2C[C@H]2[C@H]3c4[nH]c5ccccc5c4C[C@@H]([C@H](C#N)N12)N3C`: the negative-log IC50 (pIC50) with HT-29 was 5.93; in the assay with BGC-823, 5.66; with A2780, 6.20; in the assay on HCT-116 it was 5.36; with HepG2, 6.38; in the assay with MCF7 it was 5.28.

`CN1[C@@H]2c3[nH]c4ccccc4c3C[C@H]1[C@H](C#N)N1[C@@H](CNC(=O)c3ccco3)c3[nH]c4ccccc4c3C[C@@H]21`: the negative-log IC50 (pIC50) in the assay on HT-29 is 7.00; in the assay with BGC-823, 6.52; in the assay on A2780, 6.92; with HCT-116 it was 6.77; in the assay on HepG2, 6.60; in the assay with MCF7, 6.80.

For `CCc1ccc(C(=O)NC[C@H]2c3[nH]c4ccccc4c3C[C@H]3[C@H]4c5[nH]c6ccccc6c5C[C@@H]([C@H](C#N)N23)N4C)cc1`, the negative logarithm of the IC50 (pIC50) in the assay with HT-29 is 5.45; in the assay with BGC-823, 6.18; in the assay with A2780 it was 6.17; in the assay on HCT-116 it was 7.00; in the assay with HepG2 it was 6.24; with MCF7, 6.77.

For `CN1[C@@H]2c3[nH]c4ccccc4c3C[C@H]1[C@H](C#N)N1[C@@H](CNC(=O)c3cccc(C(F)(F)F)c3)c3[nH]c4ccccc4c3C[C@@H]21`, the negative logarithm of the IC50 (pIC50) in the assay with HT-29 was 6.85; in the assay on BGC-823 it was 6.06; in the assay on A2780 it was 6.68; with HCT-116 it was 6.20; in the assay with HepG2, 6.47; with MCF7 it was 6.96.

For `CN1[C@@H]2c3[nH]c4ccccc4c3C[C@H]1[C@H](C#N)N1[C@@H](CNC(=O)c3ccccn3)c3[nH]c4ccccc4c3C[C@@H]21`, the negative logarithm of the IC50 (pIC50) in the assay on HT-29 was 7.15; in the assay on BGC-823, 7.10; in the assay with A2780, 7.52; with HCT-116, 7.40; in the assay with HepG2 it was 7.15; with MCF7 it was 7.40.

With `CN1[C@@H]2c3[nH]c4ccccc4c3C[C@H]1[C@H](C#N)N1[C@@H](CNC(=O)c3ccc4ccccc4c3)c3[nH]c4ccccc4c3C[C@@H]21`, the pIC50 in the assay on HT-29 was 5.31; in the assay on BGC-823 it was 5.95; in the assay on A2780, 5.99; in the assay on HCT-116 it was 6.38; in the assay with HepG2 it was 5.92; with MCF7, 5.33.
